Compound: Clc1ccc2c(N3CCN(CCCN4CCN(c5ccnc6cc(Cl)ccc56)CC4)CC3)ccnc2c1 [piperaquine]
Experimental: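 Kenyan Plasmodium falciparum field isolates (2008-2021) were tested in a SYBR Green I growth-inhibition assay, either immediately ex vivo (fresh samples) or in vitro after culture adaptation. Cultures were at 1% parasitemia and 2% hematocrit, incubated with serial drug dilutions for 72 h at 37 °C (5% O2, 5% CO2), then read by fluorescence. IC50 was fitted by non-linear regression of the dose-response curve.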

| Test System | IC50 growth inhibition [µg/mL] |
| --- | --- |
| KOM 20/02/0178 | 0.00832 |
| KOM 20/02/0179 | 0.0157 |
| KOM 20/03/0184 | 0.0308 |
| KOM 21/02/0228 | 0.0626 |
| KOM 21/02/0237 | 0.001 |
| KOM 21/03/0202 | 0.003 |
| KOM 21/03/0254 | 0.0021 |
| KOM 21/03/0256 | 0.0026 |
| KOM 21/03/267 | 0.0023 |
| KOM 21/03/0292 | 0.0137 |
| KOM 21/04/0219 | 0.0227 |
| KOM 21/05/0262 | 0.0794 |
| KOM 21/05/0265 | 0.0027 |
| KOM 21/05/0271 | 0.0021 |
| KOM 21/05/0272 | 0.0037 |
| KOM 21/05/0277 | 0.0353 |
| KOM 21/05/0278 | 0.0027 |
| KOM 21/05/0280 | 0.0013 |
| KOM 21/08/0327 | 0.0283 |
| KOM 21/08/0340 | 0.0382 |
| KOM 21/08/0344 | 0.0249 |
| KOM 21/08/0353 | 0.0415 |
| KSI 9/06/0001 | 0.504 |
| KSI 10/09/096 | 0.0116 |
| KSI 10/09/099 | 0.0338 |
| KSI 10/09/106 | 0.201 |

| Test System | IC50 growth inhibition [µg/mL] |
| --- | --- |
| KSI 10/9/111 | 0.284 |
| KSI 10/11/118 | 0.0157 |
| KSI 12/01/224 | 0.0193 |
| KSI 12/06/270 | 0.0175 |
| KSI 12/08/285 | 0.0196 |
| KSI 12/12/304 | 0.0244 |
| KSI 13/1/307 | 0.041 |
| KSI 13/3/323 | 0.0287 |
| KSI 13/04/334 | 0.0195 |
| KSI 13/05/346 | 0.0502 |
| KSI 13/06/360 | 0.00681 |
| KSI 13/10/422 | 0.0199 |
| KSI 13/10/430 | 0.00784 |
| KSI 14/01/474 | 0.016 |
| KSI 14/02/488 | 0.0157 |
| KSI 14/03/504 | 0.013 |
| KSI 14/03/506 | 0.0128 |
| KSI 14/03/507 | 0.00669 |
| KSI 14/04/534 | 0.00127 |
| KSI 14/08/627 | 0.00419 |
| KSI 15/04/730 | 0.00513 |
| KSI 15/04/732 | 0.0061 |
| KSI 15/04/743 | 0.00175 |
| KSI 15/06/782 | 0.0255 |
| KSI 15/06/786 | 0.0146 |
| KSI 15/08/809 | 0.00778 |

| Test System | IC50 growth inhibition [µg/mL] |
| --- | --- |
| KSI 15/09/825 | 0.0121 |
| KSI 15/10/831 | 0.0251 |
| KSI 16/06/900 | 0.0333 |
| KSI 16/07/906 | 0.038 |
| KSI 16/07/907 | 0.0116 |
| KSI 16/07/908 | 0.00524 |
| KSI 16/07/912 | 0.0151 |
| KSI 16/08/916 | 0.0148 |
| KSI 17/10/920 | 0.00471 |
| KSI 18/09/0004 | 0.00835 |
| KSI 18/09/0006 | 0.00686 |
| KSI 19/06/0027 | 0.00354 |
| KSI 19/06/0032 | 0.0281 |
| KSI 19/12/0048 | 0.0353 |
| KSI 21/04/0059 | 0.208 |
| KSI 21/04/0062 | 0.0102 |
| KSI 21/04/0063 | 0.003 |
| MDH 10/8/0014 | 0.00139 |
| MDH 10/10/0020 | 0.0168 |
| MDH 11/12/0052 | 0.00417 |
| MDH 12/01/0062 | 0.019 |
| MDH 12/01/0063 | 0.012 |
| MDH 12/01/0067 | 0.0107 |
| MDH 13/08/145 | 0.0248 |
| MDH 16/05/150 | 0.00167 |
| MDH 16/08/153 | 0.00762 |

From the supplement of paper PMC9673313
